From BindingDB's records for doi:10.1080/14756360701404100 (Balikesir University Science & Art Faculty, 2008)
pIC50: −log10 of the molar value.

What was measured:
Settings in all cases: pH 10
[1] = molecular target: T1, Carbonic anhydrase 1 (Homo sapiens, UniProt P00915); test: Esterase Activity Assay
Description: (§1) Carbonic anhydrase enzyme activity was assayed both with respect to its hydratase activity (i.e. hydration of CO2) and to its esterase activity (i.e. hydrolysis of an ester of p-nitrophenylacetate)

[2] = molecular target: T2, Carbonic anhydrase 2 (Homo sapiens, UniProt P00918); test: Esterase Activity Assay
Description: as §1

[3] = molecular target: T1, Carbonic anhydrase 1; test: Hydratase Activity Assay
Description: as §1

[4] = molecular target: T2, Carbonic anhydrase 2; test: Hydratase Activity Assay
Description: as §1

T1 sequence (P00915 whole entry): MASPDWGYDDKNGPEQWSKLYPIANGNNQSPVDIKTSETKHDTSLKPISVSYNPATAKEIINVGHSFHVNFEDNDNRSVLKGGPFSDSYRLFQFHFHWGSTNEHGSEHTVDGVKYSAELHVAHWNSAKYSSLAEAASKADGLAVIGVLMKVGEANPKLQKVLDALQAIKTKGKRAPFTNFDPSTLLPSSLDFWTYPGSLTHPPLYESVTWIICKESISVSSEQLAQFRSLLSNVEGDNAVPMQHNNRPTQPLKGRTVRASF

| pIC50 [1] | pIC50 [2] | pIC50 [3] | pIC50 [4] | Structure (SMILES) |
| --- | --- | --- | --- | --- |
| 3.80 | 3.61 | 3.91 | 4.21 | O=c1oc2cc(O)c(O)cc2cc1-c1ccccc1 [DCP] |
| 3.08 | 3.70 | 3.49 | 3.30 | Cc1cccc(-c2cc3cc(O)c(O)cc3oc2=O)c1 [MPC] |
| 3.82 | 3.79 | 3.69 | 3.44 | Cc1ccccc1-c1cc2cc(O)c(O)cc2oc1=O [OPC] |
| 3.59 | 3.90 | 3.57 | 3.25 | Cc1ccc(-c2cc3cc(O)c(O)cc3oc2=O)cc1 [PPC] |
